How the values were obtained:
[1] = test system: Trypanosoma cruzi; assay: AntiTrypanosoma cruzi activity IC50 (uM); assay type: functional, organism-based
[2] = test system: Trypanosoma brucei; assay: AntiTrypanosoma brucei activity T. b. brucei IC50 (uM); assay type: functional, organism-based
[3] = test system: Leishmania infantum; assay: AntiLeishmania activity L. infantum (macrophages) IC50 (uM); assay type: functional, organism-based
[4] = test system: Trypanosoma brucei; assay: AntiTrypanosoma brucei activity T. b. rhodesiense IC50 (uM); assay type: functional, organism-based
[5] = test system: MRC5; assay: MRC5 CC50 (uM) Cytotoxicity; assay type: functional; conditions: Homo sapiens
[6] = PMM CC50 (uM) Cytotoxicity; assay type: functional; conditions: Macrophage
[7] = test system: HepG2; assay: Cytotoxicity data HepG2 CC20 (uM); assay type: functional

Structure (SMILES)	IC50 [1] [µM]	IC50 [2] [µM]	IC50 [3] [µM]	IC50 [4] [µM]	CC50 [5] [µM]	CC50 [6] [µM]	CC20 [7] [µM]
Cc1ccc(S(=O)(=O)Nc2ccc(CN3CCN(C(=O)c4cccc(C#N)c4)CC3)cc2)cc1	1.2	0.14	32	0.12	> 64	> 64	
c1ccc(Oc2ccc(-c3cc(C4CCOCC4)[nH]n3)cc2)cc1	16.4	7.58	> 32	3.77	22.8	> 32	10.8
CC(c1cc(Cl)cc(Cl)c1)N(C)c1ncc2c(N)nc(N)nc2n1 (stereo not drawn)			0.54		5.9	> 32	
CCN(CC)S(=O)(=O)c1ccc(C(=O)Nc2cc(C)nn2-c2nc(C)c(C)c(=O)[nH]2)cc1	1.96	5.3	6.87	1.7	6.6	> 64	
NCCN(C(=O)c1ccc(Cl)cc1Cl)c1ccc(OCc2ccc(Cl)cc2)cc1	0.62	< 0.13	0.63	< 0.13	4	1	
CCC(=O)Nc1ccccc1C(=O)Nc1ccccn1	> 64	2.46	> 64	1.31	> 64	> 64	
CO[C@@H]1CN(c2ccc(C#CC3(O)CN4CCC3CC4)c(Cc3ccccc3)n2)C[C@H]1O (stereo partly drawn)	< 0.13	16.1	17.3	4	> 32	> 32	38.4
N=C(N)Nc1ccc(-c2ccc(-c3ccc(NC(=N)N)cc3Cl)o2)c(Cl)c1	0.29	1.03	1.01	0.23	11.6	1	6.75
Clc1ccc(CN2CCN(C3=NCCN3)CC2)cc1Cl	6.57	31.6	> 64	30.1	> 64	> 64	
COc1cc(C2=NCCN2)ccc1-n1cc(-c2cccc(C3=NCCN3)c2)nn1	> 32	> 32	> 32	3.81	> 32	> 32	>80
CNc1cc(C)nc(C2CN(C(=O)c3n[nH]c4ccccc34)CCO2)c1 (stereo not drawn)	3.89				> 64		
O=C(Nc1ccc2c(c1)B(O)OC2)c1ccccc1C(F)(F)F	0.27	0.15	1.41	0.23	> 32	16	0.41
CCc1ccccc1-n1c(C)cn2c3c(=O)n(C(C(=O)OC)C(C)C)c(=O)n(C)c3nc12 (stereo not drawn)	0.99	< 0.13	> 32	< 0.13	> 32	> 32	44.3
CCOC(=O)c1noc(N)c1-c1ccccc1	> 64	1.22	> 64	0.46	> 64	> 64	
c1ccc(Oc2ccc(-c3cc(N4CCNCC4)[nH]n3)cc2)cc1	4.48	0.99	4.06	0.97	16	4	6.43
c1cc(C2=NCCN2)cc(-c2cc(-c3ccc(C4=NCCN4)cc3)no2)c1	> 32	5.63	> 32	3	> 32	> 32	4.51
COc1cc(C2=NCCN2)ccc1-c1cn(-c2cccc(C3=NCCN3)c2)nn1	25	> 32	> 32	3.72	> 32	> 32	22.9
C[C@H](c1ccc2c(c1)CCCC2)N(C)c1ncc2c(N)nc(N)nc2n1			0.47		7.1	8	

Structure (SMILES)	IC50 [1] [µM]	IC50 [2] [µM]	IC50 [3] [µM]	IC50 [4] [µM]	CC50 [5] [µM]	CC50 [6] [µM]	CC20 [7] [µM]
Cc1nn2c(=O)c3c([nH]c2c1-c1ccc(Cl)cc1)CCCC3	0.71	0.49	44	0.14	> 64	48	
O=C(Nc1ccc(F)c(-c2nc3cc(-c4ccccc4)cnc3[nH]2)c1)N1CCCC1	< 0.13	< 0.13	0.16	< 0.13	0.4	16	
CNC(=O)C1Cc2ccccc2N1C(=O)Cc1ccc(F)cc1 (stereo not drawn)	> 64	0.49	> 64	0.38	> 64	> 64	
N=C(N)c1ccc(-c2cc(-c3ccccc3)on2)cc1	4.04	4.06	2.54	1.08	12.2	4	2.64
CC1CCCCN1C(=O)NCCc1coc(-c2ccc(F)cc2)n1 (stereo not drawn)	0.48	0.13	> 64	0.11	> 64	> 64	
Cc1noc(C)c1COc1cccc(C(=O)N=c2[nH]cccc2C)c1	> 64	2.07	> 64	0.65	> 64	> 64	
COc1ccc(C2=NN(C3CCCCCC3)C(=O)C2(C)C)cc1OCCCCOc1ccc(-c2nn[nH]n2)cc1		0.79					
O=C(NCc1nnc2n1CCCCC2)c1ccc(-c2ccc(F)cc2)o1	2.07	0.1	> 64	0.13	> 64	> 64	
CS(=O)(=O)c1ccccc1C(=O)N(Cc1ccccc1)c1ccccc1	35.4	0.56	> 64	0.4	> 64	> 64	
Cc1nn2c(O)c3c(nc2c1-c1ccc(F)cc1)CCCC3	2.21	1.94	50.4	0.48	> 64	> 64	
O=C(NCCc1ccn(-c2ccccc2)n1)C1CCCCC1	0.73	0.15	> 64	< 0.13	> 64	> 64	
COc1ccc(C2=NN(C3CCCCCC3)C(=O)[C@@H]3CC=CC[C@H]23)cc1OCCCCOc1ccc(-c2nnn[nH]2)cc1		0.02					
CN1CCCN(C(c2ccccc2)c2ccc(Cl)cc2)CC1 (stereo not drawn) [HOMOCHLORCYCLIZINE]	9.44	4.64	36.3	1.94	31.8	48	
COc1ccc(Oc2ccc([C@@H](C)N(C)c3ncc4c(N)nc(N)nc4n3)cc2)cc1			0.03		5.4	4	
CC(=O)Nc1ccc(-c2noc(CC3CCCN(Cc4cccc(F)c4C)C3)n2)cc1 (stereo not drawn)	2.8	32.3	1.59	25.1	29.4	> 64	
FC(F)(F)c1ccc(N(c2cccnc2)C2CCN(c3ccc(C(F)(F)F)cn3)CC2)cc1	0.01						25.8
COc1ccc(S(=O)(=O)Nc2ccc(CN3CCN(C(=O)c4cccc(C#N)c4)CC3)cc2)cc1	2.7	0.5	52.2	0.4	> 64	> 64	

Source: ChEMBL document CHEMBL3832761, “MMV Pathogen Box Bioactivity Data” (2017)
